Results from PubChem BioAssay AID1963975 (Molecular Pharmacology Branch, DTP, NCI, 2024).

Test system: 624824-186-R-J2-PDC multicell spheroids, viability
Experiment: Anticancer human tumor 624824-186-R-J2-PDC patient-derived colon adenocarcinoma cell line growth inhibition [PI3K]
Settings: for viability, T/C: stronger effect = lower value
Procedure, shortened: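 Stroma-containing spheroids: tumor line, pooled-donor HUVEC, hMSC. Treatments: targeted agents with PI3K inhibitors. Dosing: clinically relevant, half-log spacing, 10 microM ceiling without known Cmax. Read-out: cell viability.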

[1] = curve of first compound, second compound 0.0316 µM
[2] = curve of first compound, second compound 0.1 µM
[3] = curve of first compound, second compound 0.316 µM
[4] = curve of first compound, second compound 1 µM
[5] = curve of first compound, second compound 3.16 µM
[6] = curve of first compound, second compound 10 µM
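Note: spheroids exposed to agents for 7 days before viability read.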
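Throughout, for viability, T/C: 100% = DMSO vehicle treated spheroids.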

Cn1cnc2c(F)c(Nc3ccc(Br)cc3Cl)c(C(=O)NOCCO)cc21 + Cc1nc(NC(=O)N2CCCC2C(N)=O)sc1-c1ccnc(C(C)(C)C(F)(F)F)c1 was tested, and the IC50 [1] was > 3 µM, the IC50 [2] was > 3 µM and the IC50 [3] was > 3 µM. The IC50 [4] was > 3 µM, the IC50 [5] was 0.69 µM and the IC50 [6] was 0.0836 µM. It also gave a viability, T/C (second compound 0.0316 µM, first compound 0.00949 µM) of 90.2%, a viability, T/C (second compound 0.0316 µM, first compound 0.03 µM) of 68.3% and a viability, T/C (second compound 0.0316 µM, first compound 0.0949 µM) of 78%. For the same compound, the viability, T/C (second compound 0.0316 µM, first compound 0.3 µM) was 91.2%, the viability, T/C (second compound 0.0316 µM, first compound 0.949 µM) was 89.4% and the viability, T/C (second compound 0.0316 µM, first compound 3 µM) was 76.4%. It also gave a viability, T/C (second compound 0.1 µM, first compound 0.00949 µM) of 82.8%, a viability, T/C (second compound 0.1 µM, first compound 0.03 µM) of 79.7% and a viability, T/C (second compound 0.1 µM, first compound 0.0949 µM) of 72.9%. For the same compound, the viability, T/C (second compound 0.1 µM, first compound 0.3 µM) was 78.5%, the viability, T/C (second compound 0.1 µM, first compound 0.949 µM) was 83.1% and the viability, T/C (second compound 0.1 µM, first compound 3 µM) was 77.4%. It also gave a viability, T/C (second compound 0.316 µM, first compound 0.00949 µM) of 86.7%, a viability, T/C (second compound 0.316 µM, first compound 0.03 µM) of 71.8% and a viability, T/C (second compound 0.316 µM, first compound 0.0949 µM) of 74.3%. It also gave a viability, T/C (second compound 0.316 µM, first compound 0.3 µM) of 70.5%, a viability, T/C (second compound 0.316 µM, first compound 0.949 µM) of 77.7% and a viability, T/C (second compound 0.316 µM, first compound 3 µM) of 66.7%. It also gave a viability, T/C (second compound 1 µM, first compound 0.00949 µM) of 90.3%, a viability, T/C (second compound 1 µM, first compound 0.03 µM) of 61.8% and a viability, T/C (second compound 1 µM, first compound 0.0949 µM) of 66.6%. For the same compound, the viability, T/C (second compound 1 µM, first compound 0.3 µM) was 62.7%, the viability, T/C (second compound 1 µM, first compound 0.949 µM) was 77.5% and the viability, T/C (second compound 1 µM, first compound 3 µM) was 51.5%. For the same compound, the viability, T/C (second compound 3.16 µM, first compound 0.00949 µM) was 82.2%, the viability, T/C (second compound 3.16 µM, first compound 0.03 µM) was 73.8% and the viability, T/C (second compound 3.16 µM, first compound 0.0949 µM) was 79.6%. The viability, T/C (second compound 3.16 µM, first compound 0.3 µM) was 63.8%, the viability, T/C (second compound 3.16 µM, first compound 0.949 µM) was 44.6% and the viability, T/C (second compound 3.16 µM, first compound 3 µM) was 22.2%. It also gave a viability, T/C (second compound 10 µM, first compound 0.00949 µM) of 63%, a viability, T/C (second compound 10 µM, first compound 0.03 µM) of 58.4% and a viability, T/C (second compound 10 µM, first compound 0.0949 µM) of 43.1%. For the same compound, the viability, T/C (second compound 10 µM, first compound 0.3 µM) was 44.5%, the viability, T/C (second compound 10 µM, first compound 0.949 µM) was 17.7% and the viability, T/C (second compound 10 µM, first compound 3 µM) was 1.93%.

In the case of CC1(C)CCC(Nc2ncc(C(F)(F)F)c(-c3c[nH]c4c(P(C)(C)=O)c(C#N)ccc34)n2)CN1 (stereo not given), the viability, T/C (compound 0.1 µM) is reported as 76.4% [middle of 4 runs], the viability, T/C (compound 0.316 µM) is reported as 102% [middle of 4 runs] and the viability, T/C (compound 1 µM) is reported as 104% [middle of 4 runs]. For the same compound, the viability, T/C (compound 3.16 µM) was 62.5% [middle of 4 runs], the viability, T/C (compound 10 µM) was 7.89% [middle of 4 runs] and the IC50 (curve of compound) was 4.11 µM [middle of 4 runs].

With CC1(C)CCC(CN2CCN(c3ccc(C(=O)NS(=O)(=O)c4ccc(NCC5CCOCC5)c([N+](=O)[O-])c4)c(Oc4cnc5[nH]ccc5c4)c3)CC2)=C(c2ccc(Cl)cc2)C1 + Cc1nc(NC(=O)N2CCCC2C(N)=O)sc1-c1ccnc(C(C)(C)C(F)(F)F)c1 the IC50 [1] was > 10 µM, the IC50 [2] was > 10 µM and the IC50 [3] was > 10 µM. For the same compound, the IC50 [4] was > 10 µM, the IC50 [5] was > 10 µM and the IC50 [6] was 6.9 µM. For the same compound, the viability, T/C (second compound 0.0316 µM, first compound 0.0316 µM) was 103%, the viability, T/C (second compound 0.0316 µM, first compound 0.1 µM) was 93.7% and the viability, T/C (second compound 0.0316 µM, first compound 0.316 µM) was 95.9%. For the same compound, the viability, T/C (second compound 0.0316 µM, first compound 1 µM) was 68.5%, the viability, T/C (second compound 0.0316 µM, first compound 3.16 µM) was 70.9% and the viability, T/C (second compound 0.0316 µM, first compound 10 µM) was 67.1%. The viability, T/C (second compound 0.1 µM, first compound 0.0316 µM) was 84.3%, the viability, T/C (second compound 0.1 µM, first compound 0.1 µM) was 88.3% and the viability, T/C (second compound 0.1 µM, first compound 0.316 µM) was 88.2%. For the same compound, the viability, T/C (second compound 0.1 µM, first compound 1 µM) was 80.8%, the viability, T/C (second compound 0.1 µM, first compound 3.16 µM) was 84.1% and the viability, T/C (second compound 0.1 µM, first compound 10 µM) was 51.7%. It also gave a viability, T/C (second compound 0.316 µM, first compound 0.0316 µM) of 82.9%, a viability, T/C (second compound 0.316 µM, first compound 0.1 µM) of 86.9% and a viability, T/C (second compound 0.316 µM, first compound 0.316 µM) of 75.6%. The viability, T/C (second compound 0.316 µM, first compound 1 µM) was 72.1%, the viability, T/C (second compound 0.316 µM, first compound 3.16 µM) was 67.1% and the viability, T/C (second compound 0.316 µM, first compound 10 µM) was 67.5%. For the same compound, the viability, T/C (second compound 1 µM, first compound 0.0316 µM) was 91.3%, the viability, T/C (second compound 1 µM, first compound 0.1 µM) was 78.9% and the viability, T/C (second compound 1 µM, first compound 0.316 µM) was 79.6%. For the same compound, the viability, T/C (second compound 1 µM, first compound 1 µM) was 80.3%, the viability, T/C (second compound 1 µM, first compound 3.16 µM) was 100% and the viability, T/C (second compound 1 µM, first compound 10 µM) was 77.3%. For the same compound, the viability, T/C (second compound 3.16 µM, first compound 0.0316 µM) was 68.1%, the viability, T/C (second compound 3.16 µM, first compound 0.1 µM) was 76.9% and the viability, T/C (second compound 3.16 µM, first compound 0.316 µM) was 80.3%. The viability, T/C (second compound 3.16 µM, first compound 1 µM) was 94.7%, the viability, T/C (second compound 3.16 µM, first compound 3.16 µM) was 83.6% and the viability, T/C (second compound 3.16 µM, first compound 10 µM) was 50.4%. The viability, T/C (second compound 10 µM, first compound 0.0316 µM) was 73%, the viability, T/C (second compound 10 µM, first compound 0.1 µM) was 79.4% and the viability, T/C (second compound 10 µM, first compound 0.316 µM) was 68.5%. It also gave a viability, T/C (second compound 10 µM, first compound 1 µM) of 74.3%, a viability, T/C (second compound 10 µM, first compound 3.16 µM) of 82.6% and a viability, T/C (second compound 10 µM, first compound 10 µM) of 37.9%.
